Data taken from ChEMBL document CHEMBL3779885, “Inhibition of human DNA topoisomerase IIα by two novel ellipticine derivatives” (Bioorg Med Chem Lett, 2016).
The source made the active and inactive calls. No cut-off for these calls is given here.

Tests used:
[1] = system: Calf thymus DNA; assay: Inhibition of calf thymus DNA topoisomerase 2 assessed as DNA cleavage after 30 mins by agarose gel electrophoresis; type: nucleic-acid assay, Bos taurus
[2] = biological target: T1, DNA topoisomerase 2-alpha (Homo sapiens, UniProt P11388); assay: Inhibition of recombinant human DNA topoisomerase 2alpha expressed in topoisomerase1 deficient Saccharomyces cerevisiae JEL1 assessed as inhibition of DNA scission activity after 30 mins by agarose gel electrophoresis
[3] = system: Escherichia coli; assay: Induction of DNA intercalation in relaxed pBR322 DNA assessed as conversion of relaxed DNA to negatively supercoiled DNA by measuring topoisomerase 1-mediated DNA relaxation measured up to 25 uM after 15 mins by agarose gel electrophoresis
[4] = biological target: T1, DNA topoisomerase 2-alpha; assay: Inhibition of recombinant human DNA topoisomerase 2alpha expressed in topoisomerase1 deficient Saccharomyces cerevisiae JEL1 using kinetoplast DNA as substrate assessed as decantenated kDNA minicircles at 200 to 1000 uM after 15 mins by agarose gel electrophoresis
[5] = biological target: T1, DNA topoisomerase 2-alpha; assay: Induction of recombinant human DNA topoisomerase 2alpha binding to supercoiled pBR322 DNA expressed in topoisomerase1 deficient Saccharomyces cerevisiae JEL1 at 25 uM after 6 mins by electrophoretic mobility shift assay
[6] = biological target: T1, DNA topoisomerase 2-alpha; assay: Inhibition of recombinant human DNA topoisomerase 2alpha expressed in topoisomerase1 deficient Saccharomyces cerevisiae JEL1 assessed as inhibition of DNA scission activity at 25 uM after 30 mins by agarose gel electrophoresis
[7] = biological target: T1, DNA topoisomerase 2-alpha; assay: Inhibition of recombinant human DNA topoisomerase 2alpha binding to supercoiled pBR322 DNA expressed in topoisomerase1 deficient Saccharomyces cerevisiae JEL1 at 25 uM after 6 mins by electrophoretic mobility shift assay
[8] = biological target: T1, DNA topoisomerase 2-alpha; assay: Activity at recombinant human DNA topoisomerase 2alpha expressed in topoisomerase1 deficient Saccharomyces cerevisiae JEL1 assessed as topoisomerase 2alpha-mediated supercoiled pBR322 DNA cleavage up to 200 uM after 15 mins by agarose gel electrophoresis

T1 sequence (P11388 whole entry): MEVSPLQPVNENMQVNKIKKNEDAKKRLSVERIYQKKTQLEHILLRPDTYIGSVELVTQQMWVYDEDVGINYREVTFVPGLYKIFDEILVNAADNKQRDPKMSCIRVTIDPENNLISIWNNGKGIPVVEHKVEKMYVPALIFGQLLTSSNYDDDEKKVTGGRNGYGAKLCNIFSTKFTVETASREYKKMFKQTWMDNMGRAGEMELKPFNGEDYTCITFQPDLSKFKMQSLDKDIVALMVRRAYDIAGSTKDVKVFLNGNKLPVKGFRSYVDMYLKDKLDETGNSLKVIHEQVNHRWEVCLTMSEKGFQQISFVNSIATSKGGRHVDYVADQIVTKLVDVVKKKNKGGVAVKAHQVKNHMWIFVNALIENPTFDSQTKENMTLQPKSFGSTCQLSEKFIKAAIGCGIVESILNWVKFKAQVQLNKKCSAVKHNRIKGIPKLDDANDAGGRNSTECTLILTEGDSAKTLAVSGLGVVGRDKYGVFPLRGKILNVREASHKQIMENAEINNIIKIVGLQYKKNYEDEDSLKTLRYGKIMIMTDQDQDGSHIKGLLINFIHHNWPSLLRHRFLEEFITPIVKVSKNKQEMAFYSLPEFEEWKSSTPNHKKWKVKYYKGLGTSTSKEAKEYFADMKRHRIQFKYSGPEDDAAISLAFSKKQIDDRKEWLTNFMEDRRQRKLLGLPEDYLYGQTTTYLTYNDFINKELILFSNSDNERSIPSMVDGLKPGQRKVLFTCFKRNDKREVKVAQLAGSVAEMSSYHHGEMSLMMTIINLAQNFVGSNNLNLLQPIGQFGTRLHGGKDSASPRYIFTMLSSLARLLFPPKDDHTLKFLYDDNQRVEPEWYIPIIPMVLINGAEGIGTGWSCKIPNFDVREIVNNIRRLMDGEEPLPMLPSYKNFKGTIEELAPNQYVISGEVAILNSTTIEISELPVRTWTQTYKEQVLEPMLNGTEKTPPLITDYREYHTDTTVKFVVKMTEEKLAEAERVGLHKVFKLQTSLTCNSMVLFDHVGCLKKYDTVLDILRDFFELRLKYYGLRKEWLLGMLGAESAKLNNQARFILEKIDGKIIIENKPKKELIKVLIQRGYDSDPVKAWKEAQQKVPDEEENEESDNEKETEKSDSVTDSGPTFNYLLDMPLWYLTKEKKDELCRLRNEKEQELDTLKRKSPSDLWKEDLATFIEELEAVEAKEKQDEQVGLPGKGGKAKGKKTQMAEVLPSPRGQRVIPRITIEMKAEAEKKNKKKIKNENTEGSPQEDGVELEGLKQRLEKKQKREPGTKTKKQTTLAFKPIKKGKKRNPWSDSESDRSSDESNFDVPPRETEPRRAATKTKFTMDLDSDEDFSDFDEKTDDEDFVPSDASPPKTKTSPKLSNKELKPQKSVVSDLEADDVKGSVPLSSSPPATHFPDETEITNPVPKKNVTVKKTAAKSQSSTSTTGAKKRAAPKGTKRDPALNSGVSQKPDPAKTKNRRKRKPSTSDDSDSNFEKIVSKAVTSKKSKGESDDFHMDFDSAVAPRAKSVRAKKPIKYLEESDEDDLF

Row | Activity [5] [%] | SMILES | IC50 [1] [µM] | IC50 [2] [µM] | Activity [3] | inhibition [4] | inhibition [6] [%] | inhibition [7] | Activity [8]
1 | – | Cc1c2ccncc2c(C)c2c1[nH]c1ccccc12 [ELLIPTECINE] | > 200 | – | – | – | – | – | –
2 | 50 | Cc1c2c[n+](C)ccc2cc2c1c1ccccc1n2C | – | 5 | Active | Active | 80 | inactive | inactive
3 | – | Cc1c2cnccc2cc2c1c1ccccc1n2C | – | 40 | Active | Active | 40 | inactive | inactive
